# Tests used:
# CDK 1/2/3/5 = test: IHC protein expression on OVCAR3 tumor samples: CDK 1/2/3/5; assay type: in vivo, human; conditions: OVCAR3 tumor samples from Example 1 CDX study
# Procedure: • Sample Collection: 16 tumor samples were collected across the vehicle, olaparib, E7820 single agent, and paclitaxel arms from the in vivo OVCAR3 CDX study described in Example 1
# • 1) Collect fresh specimens and place in 10% NBF (neutral-buffered formalin; fixative volume/tissue, 10˜20 folds), fix at room temperature for 24 hours. • 2) Trim the fixed tissue at the thickness of 3-5 mm. • 3) Move the tissue into the Embedding box, and snap the box into deionized water for 30 minutes, change water twice every 30 minutes. • 4) After washing, the fixed tissues are transferred to the LEICA ASP300S Vacuum Tissue Processor for dehydration.
# • All stained sections are scanned with NanoZoomer-HT 2.0 Image system for 40× magnification. High resolution picture for whole section is generated and further quantification analyzed by HALO. All the scanned images are analyzed by HALO™ platform. The whole slide image is analyzed and necrosis and stroma area are excluded, only viable tumor area is scored. The intensity of specific staining is scored at four levels, 0 (negative), 1+(weak staining), 2+(medium staining), 3+(strong staining). The percentages of tumor cells at different intensity levels are evaluated with H-score. H-Score=(% at 0)×0+(% at 1)×1+(% at 2)×2+(% at 3)×3 (H-Score range is 0 to 300).
# OVCAR3 cells = test: CellTiter-Glo cell viability assay in OVCAR3 cell line; assay type: cell-based, human; conditions: 72 h
# Procedure: • Cell culture: OVCAR3 is a human ovarian cancer cell line that is BRCA-proficient and HRD negative. Pharmaron in China acquired this cell line for in vitro testing. OVCAR3 human ovarian tumor cells were maintained in vitro with RPMI-1640 (Glutamax)+0.01 mg/ml insulin+20% FBS+1% PS • Cell Seeding: Cells were harvested from flask into cell culture medium and counted. Cells were diluted with culture medium for below cell densities and 8000 OVCAR cells were plated per well in a 384-well plate (PerkinElmer, Cat. #6007680), using electronic multichannel pipette in 40 μL. For the low control wells, 40 μL PBS was added. […] Plates were covered with lid and spun at 1 min/1000 rpm followed by incubation overnight at 37° C., 5% CO2. • Compound Time: SR4835 and THZ531 were dissolved at 10 mM stock solution and diluted in a 3-fold, 9-point diluted series. Cells were treated with 40 nL of SR4835 and THZ531 by plate reformat Echo550 followed by incubation at 37° C. for 72 h in a CO2 incubator. For the high control, 40 nL DMSO was added. • Readout: CellTiter-Glo@ 2.0 Reagent (Promega, G9242) was removed from the fridge and equilibrated at RT(23° C.) for 60 minutes. Plates were removed from the incubator and allowed to equilibrate to room temperature, for at least 15 minutes. 30 μL CellTiter-Glo® 2.0 Reagent was added to the assay plates and allowed to sit for 30 minutes prior to reading. Luminescence signal was read on Envision. • Calculation: Cell viability (% DMSO control) was calculated using the following equation
# • Cell culture: OVCAR3 is a human ovarian cancer cell line that is BRCA-proficient and HRD negative. Pharmaron in China acquired this cell line for in vitro testing. OVCAR3 human ovarian tumor cells were maintained in vitro with RPMI-1640 (Glutamax)+0.01 mg/ml insulin+20% FBS. • Cell Seeding: Cells were harvested from flask into cell culture medium and counted. Cells were diluted with culture medium for below cell densities and 8000 OVCAR cells were plated per well in a 384-well plate (PerkinElmer, Cat. #6007680), using electronic multichannel pipette in 50 μL For the low control wells, 50 μL PBS was added. […] Cells were treated with E7820 and indisulam by plate reformat Echo software and spun 1 min/1000 rpm followed by incubation at 37° C. for 72 h in a CO2 incubator. • Readout: CellTiter-Glo@ 2.0 Reagent (Promega, G9242) was removed from the fridge and equilibrated at RT (23° C.) for 60 minutes. […] 40 μL CellTiter-Glo® 2.0 Reagent was added to the assay plates, and spun 1 min/1000 rpm, then allowed to sit for 20 minutes prior to reading. Luminescence signal was read on Envision. • Calculation: Cell viability (% DMSO control) was calculated using the following equation
smiles,measurement,setting,value
Cc1ccc(NS(=O)(=O)c2cccc(C#N)c2)c2[nH]cc(C#N)c12 [Compound E7820],CDK 1/2/3/5 protein expression (IHC),CDK 1/2/3/5,no changes
same,cell viability,OVCAR3 cells,minimal effect on cell viability
